Results: patent US11001561B2, “Pyrimidinone derivatives as SHP2 antagonists” (MERCK PATENT GMBH, priority 2019, dated 2021)
“Also recorded” adds a separate entry of the source. Where two headings read alike, the source gives them in different places.

Columns and labels:
[1] = target: auto-activated mutant protein SHP2 E76K (Homo sapiens (Human), UniProt Q06124, E76K); test: SHP2 active mutant E76K biochemical assay with and without activating peptide
Procedure: The inhibition of SHP2 by compounds of the invention was monitored using the surrogate substrate DiFMUP after protein activation by a peptide bearing two appropriately spaced phosphotyrosine. Full length SHP2 protein (Recombinant HumanSHP-2, E. coli derived Ser2Arg593, N-terminal 6His tag from R&D systems; 0.0.24 nM) was incubated with activating peptide, IRSI_2pY (New England Peptide, 140 nM) and DiFMUP (molecular probes, 80 uM) at RT in buffer (HEPES pH 7.2 60 mM, DDT 5 mM, KCl 75 mM, NaCl 75 mM, EDTA 1 mM, Tween 20 0.05%) in presence of compound (10 concentrations range, top concentration 50 μM) for 60 min. The generation of the DiFMU product by activated SHP2 was monitored through Fluorescence measurement with a PerkinElmer Envision reader. The inhibitor dose response curves were analyzed with Genedata Screener.

[2] = target: Kv11.1 (hERG) ion channel (Homo sapiens (Human), UniProt Q12809); test: hERG patch clamp in Kv11.1 transfected HEK293 cells; type: cell-based
Kv11.1 (hERG) ion channel, sequence (Q12809 whole entry): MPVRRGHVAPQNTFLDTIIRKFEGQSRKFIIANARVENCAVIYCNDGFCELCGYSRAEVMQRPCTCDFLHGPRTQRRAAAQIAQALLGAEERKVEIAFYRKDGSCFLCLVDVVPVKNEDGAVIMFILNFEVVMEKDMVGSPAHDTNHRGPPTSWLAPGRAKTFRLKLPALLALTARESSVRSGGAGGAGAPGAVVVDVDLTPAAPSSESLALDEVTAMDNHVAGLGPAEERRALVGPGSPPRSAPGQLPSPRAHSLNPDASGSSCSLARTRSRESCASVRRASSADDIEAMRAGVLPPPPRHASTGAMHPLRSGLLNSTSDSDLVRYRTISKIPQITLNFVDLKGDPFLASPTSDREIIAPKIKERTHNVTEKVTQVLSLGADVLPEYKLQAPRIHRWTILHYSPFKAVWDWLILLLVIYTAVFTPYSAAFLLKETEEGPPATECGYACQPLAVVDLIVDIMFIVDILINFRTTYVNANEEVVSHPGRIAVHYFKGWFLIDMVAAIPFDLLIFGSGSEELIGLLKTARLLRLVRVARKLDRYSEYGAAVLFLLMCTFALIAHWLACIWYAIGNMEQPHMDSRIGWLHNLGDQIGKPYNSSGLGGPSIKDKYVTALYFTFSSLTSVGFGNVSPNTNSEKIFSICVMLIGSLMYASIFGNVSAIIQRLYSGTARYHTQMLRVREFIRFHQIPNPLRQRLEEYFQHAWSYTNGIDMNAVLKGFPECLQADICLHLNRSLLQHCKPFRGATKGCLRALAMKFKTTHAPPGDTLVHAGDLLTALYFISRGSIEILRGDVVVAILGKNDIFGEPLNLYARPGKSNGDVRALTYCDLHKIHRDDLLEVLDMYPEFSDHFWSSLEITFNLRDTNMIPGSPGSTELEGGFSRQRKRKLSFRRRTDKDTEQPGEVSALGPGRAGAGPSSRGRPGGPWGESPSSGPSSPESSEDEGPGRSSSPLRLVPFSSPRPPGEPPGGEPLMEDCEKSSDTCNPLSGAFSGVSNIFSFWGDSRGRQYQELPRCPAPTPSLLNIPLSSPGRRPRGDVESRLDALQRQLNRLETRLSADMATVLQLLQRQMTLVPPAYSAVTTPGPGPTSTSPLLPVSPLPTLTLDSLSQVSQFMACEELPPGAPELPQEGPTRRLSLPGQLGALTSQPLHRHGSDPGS
Procedure: Inhibition of the ion channel hErg (or Kv11.1) current causes QT interval prolongation resulting in potentially fatal ventricular tachyarrhythmia called Torsade de Pointes.
hERG ion channel activity was assessed using a patch clamp technique in stable Kv11.1 (hERG) transfected human embryonic kidney cell line (HEK293). Whole cell recordings were carried out with an automated patch clamp device Patchliner™ from Nanion Technologies, Munich following manufacturer recommendation. Different concentrations of the test compound or reference, quinidine, were applied to whole cells suspension and current was measured using a pulse pattern with fixed amplitudes.

U87-MG xenografts = test: U87-MG xenograft (PTEN LOF glioblastoma); type: in vivo, mouse; settings: CD-1 nude mice, 50 mg/kg daily oral gavage, FIG. 6
Source text: CD-1 nude mice were inoculated with 10 million U87-MG cells.

[3] = Pharmacokinetics in mouse (oral / intravenous); type: in vivo; settings: female CD1 mice
Procedure: Female CD1 mice (N=3) received a single oral (gavage) or a single intravenous (bolus) injection of compound. […] Consecutive blood samples were taken sub-lingually under isofluorane inhalation from animals after 0.083 (IV), 0.25, 0.5, 1, 2, 4, 6 and 24 h and were further processed to obtain plasma. Samples were protein precipitated and analysed by LC/MS/MS.

MiaPaCa-2 xenografts = type: in vivo, mouse; settings: H2D Rag2 mice, 50 or 100 mg/kg daily oral gavage
Source text: H2D Rag2 mice were inoculated with 3 million MiaPaCa-2 cells.

pERK1/2 in KYSE520 cells = test: p-Erk cellular assay in KYSE520 (Mesoscale); type: cell-based; settings: Homo sapiens, KYSE-520, 2 h, read-out: pERK1/2 in Cell KYSE520 IC50
Procedure: p-Erk Cellular Assay in KYSE520: The effect of SHP2 inhibitors on pERK level was assessed using phospho-specific antibody using Mesoscale quantification platform. For measuring change in pERK levels using mesoscale, 30,000 cells of KYSE520 cells were plated in 96-well tissue culture treated plate in 175 μl volume of media. After an overnight incubation at 37° C., various SHP2 inhibitors were added in different concentration to each well maintaining duplicate wells across plates and incubated with compounds for 2 h at 37° C. followed by a wash with ice cold PBS buffer. The cells were then lysed in lysis buffer and processed and analyzed for p-ERK/ERK as per manufacturer's instructions (Mesoscale discovery, cat No. […]-3).

HPAF-2 xenografts = settings: CB17.SCID mice, 50 mg/kg 23B or 60 mg/kg RMC-4550 daily oral gavage
[4] = target: Recombinant human SHP2 protein (2-593) (Homo sapiens (Human), UniProt Q06124); test: SPR binding assay
Recombinant human SHP2 protein (2-593), sequence (Q06124 2-593): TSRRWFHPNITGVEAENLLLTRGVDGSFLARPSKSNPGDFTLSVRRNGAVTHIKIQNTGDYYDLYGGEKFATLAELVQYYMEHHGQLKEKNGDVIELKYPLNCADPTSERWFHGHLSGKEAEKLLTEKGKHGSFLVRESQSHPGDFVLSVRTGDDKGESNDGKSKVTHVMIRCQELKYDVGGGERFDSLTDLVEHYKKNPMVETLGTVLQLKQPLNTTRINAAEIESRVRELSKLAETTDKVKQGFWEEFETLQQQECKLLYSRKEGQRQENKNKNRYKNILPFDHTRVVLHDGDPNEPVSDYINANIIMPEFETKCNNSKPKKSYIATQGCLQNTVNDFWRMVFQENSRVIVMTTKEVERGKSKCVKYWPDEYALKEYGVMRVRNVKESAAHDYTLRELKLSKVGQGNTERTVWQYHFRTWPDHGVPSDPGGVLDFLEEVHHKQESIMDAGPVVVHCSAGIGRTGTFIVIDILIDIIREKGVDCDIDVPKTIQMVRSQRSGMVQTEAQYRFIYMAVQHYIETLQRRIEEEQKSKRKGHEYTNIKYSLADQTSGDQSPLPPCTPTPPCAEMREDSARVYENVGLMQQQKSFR
Procedure: The immobilization buffer contained 20 mM HEPES/NaOH (pH 7.4), 150 mM NaCl, 0.05% Tween 20. Inhibitors (stored as 10 mM stock solutions in 100% DMSO) were diluted in running buffer (20 mM HEPES/NaOH pH 7.4, 150 mM NaCl, 1 mM DTT, 5 mM MgCl2 0.1 mM EGTA, 0.05% Tween 20, 2% DMSO @25° C.) and analysed with a Biacore 4000 (Biacore AB, GE Healthcare Life Sciences, Uppsala, Sweden) using a 2-fold dilution series. The highest compound concentration varied according to the expected dissociation constant, but all compounds were tested at 10 different concentrations. Interaction analysis cycles were run at 30 μL/min and consisted of a 140 s sample injection followed by 600 s of buffer flow (dissociation phase). All sensograms were evaluated by first subtracting the binding response recorded from the control surface (reference spot), followed by subtracting a buffer blank injection. To determine kinetic rate constants, data sets were fitted to a simple 1:1 interaction model including a term for mass transport using numerical integration and nonlinear curve fitting. Equilibrium analysis was performed by fitting the response at the end of the association phase to a single-site binding isotherm.

EBC-1 xenografts = test: EBC-1 xenograft (cMET amplified non-small cell lung cancer); type: in vivo; settings: CD-1 nude mice, 100 mg/kg daily oral gavage
Source text: CD-1 nude mice were inoculated with 5 million EBC-1 cells.

Kyse-520 xenografts = test: Kyse-520 xenograft (EGFR amplified esophageal cancer); settings: H2D Rag2 mice, 10, 30 or 100 mg/kg daily oral gavage
Source text: H2D Rag2 mice were inoculated with 5 million KYSE-520 cells mixed with matrigel.
In vivo efficacy of compound 74a in an EGFR amplified setting was investigated in Kyse-520 xenografts. H2D Rag2 mice were inoculated with 5 million KYSE-520 cells mixed with matrigel.

[5] = target: Full length SHP2 protein (Recombinant Human SHP-2) (Homo sapiens (Human), UniProt Q06124); test: SHP2 biochemical assay (DiFMUP substrate, activating peptide IRSI_2pY)
Full length SHP2 protein (Recombinant Human SHP-2), sequence (Q06124 2-593): as above
Procedure: The inhibition of SHP2 by compounds of the invention was monitored using the surrogate substrate DiFMUP after protein activation by a peptide bearing two appropriately spaced phosphotyrosine. […] The generation of the DiFMU product by activated SHP2 was monitored through Fluorescence measurement with a PerkinElmer Envision reader. The inhibitor dose response curves were analyzed with Genedata Screener.

auto-activated mutant protein SHP2 E76K, sequence (Q06124 whole entry E76K): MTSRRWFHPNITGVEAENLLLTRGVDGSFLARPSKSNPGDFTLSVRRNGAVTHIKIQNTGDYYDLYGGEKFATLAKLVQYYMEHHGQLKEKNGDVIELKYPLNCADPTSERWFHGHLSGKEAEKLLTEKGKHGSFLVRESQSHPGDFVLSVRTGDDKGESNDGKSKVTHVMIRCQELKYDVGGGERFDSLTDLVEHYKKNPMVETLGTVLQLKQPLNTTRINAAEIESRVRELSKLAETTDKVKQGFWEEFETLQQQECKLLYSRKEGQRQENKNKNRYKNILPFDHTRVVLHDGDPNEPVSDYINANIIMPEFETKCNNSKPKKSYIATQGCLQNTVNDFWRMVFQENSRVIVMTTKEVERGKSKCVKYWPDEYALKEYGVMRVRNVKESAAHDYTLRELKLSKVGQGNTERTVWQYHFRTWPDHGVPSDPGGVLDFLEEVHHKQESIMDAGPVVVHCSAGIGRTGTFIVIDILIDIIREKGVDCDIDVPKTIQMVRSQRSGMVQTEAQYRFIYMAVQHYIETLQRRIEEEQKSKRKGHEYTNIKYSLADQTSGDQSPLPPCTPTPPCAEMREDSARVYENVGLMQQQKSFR

Structure (SMILES): Cc1c(N2CCC3(CC2)CO[C@@H](C)[C@H]3N)nc(C)n(-c2cccc(Cl)c2Cl)c1=O (single isomer, unassigned) [Compound 23b]
- IC50 ([1]; SHP-2 E76Z IC50 (nM) No peptide, without activating peptide): 21 nM
- IC50 ([1]; with activating peptide IRSI_2pY 140 nM, read-out: SHP-2 E76Z IC50 (nM) peptide): 12 nM
- Ki [2]: > 10 µM
- tumor growth / regression (U87-MG xenografts): reduces tumor size as compared to baseline; also recorded: Tumor regression
- Fz [3]: 100%
- clearance ([3]; mouse, plasma, intravenous): 15.5 mL/min/kg
- Vd ([3]; mouse, plasma, intravenous, read-out: Vd ss): 4.64 L/kg
- tolerability (MiaPaCa-2 xenografts): All doses were well tolerated
- IC50 (pERK1/2 in KYSE520 cells): 94 nM
- tolerability (HPAF-2 xenografts): All doses were well tolerated
- tumor inhibition (HPAF-2 xenografts; FIG. 5): Significant tumor inhibition
- Kd [4]: 7.14 nM
- tolerability (EBC-1 xenografts): All doses were well tolerated
- tumor growth inhibition (EBC-1 xenografts; FIG. 7): reduces tumor growth; also recorded: Significant tumor growth inhibition
- tolerability (Kyse-520 xenografts): All doses were well tolerated
- tumor growth inhibition (Kyse-520 xenografts; FIG. 2): multiple dosage levels reduce growth of the tumor a significant amount; also recorded: dose-dependent significant tumor growth inhibition
- IC50 ([5]; SHP-2 IC50 (nM) peptide, wild-type SHP-2, with activating peptide): 12 nM
- IC50 ([5]; SHP-2 biochemical assay IC50 (μM), activating peptide IRSI_2pY 140 nM, DiFMUP, 60 min): 9 nM
